According to patent US7323044B1, “Biocidal compositions” (Troy Corporation, priority 2007, dated 2008):

Columns and labels:
[1] = Amount of castor oil based co-solvent required to keep OBPA in solution with plasticizer; format: physicochemical; details: with commercial plasticizers (e.g., diisodecyl phthalate); about −13° C. to about 30° C.
Protocol: As a general rule, OBPA solutions which are transported or stored at outdoor conditions, without the benefit of dedicated heating or cooling equipment, may be exposed to temperatures in the range of about −13° C. to about 30° C. […] For OBPA solutions which will be transported or stored at outdoor conditions, we prefer that the weight ratio of OBPA to the solvent is about 0.12 or less in the present invention, more preferably in the range of about 0.083 to about 0.12, and most preferably about 0.10. For OBPA solutions which will be temperature-controlled during shipment and storage, the invention can be successfully practiced over a broader range of OBPA to solvent weight ratio.

[2] = background statement; cited from earlier work

c1ccc2c(c1)Oc1ccccc1[As]2O[As]1c2ccccc2Oc2ccccc21 [OBPA, 10,10′-oxybisphenoxarsine]
Castor oil based co-solvent required to keep 1 gram of OBPA in solution [1]: at least 8 grams
Solubility of OBPA in plasticizers currently favored for manufacturing flexible PVC [2]: less than 1 wt %
